Reference: US20060116390A1, “Hepatitis c virus inhibitors” (priority 2003, published 2006)
Where two headings read alike, the source gives them in different places.

System: HCV proteins in Rep5.1 cells (replicon cell line)
Test: Inhibitory activity of HCV: cell-based ELISA in replicon cell line Rep5.1 (decrease of HCV proteins)
Design: species or system hepatitis C virus
Settings: Rep5.1 cells, 72 hours with drug
Protocol: In order to, screen and evaluate the anti-HCV therapeutic agents in cell level, the following experiments are carried out using a replicon cell line, Rep5.1 [Lohmann, et al., Replication of subgenomic hepatitis C virus RNAs in a hepatoma cell line. Science 285:110-113 (1999)].
Rep5.1 cells, the replicon cell line, are cultured in DMEM-10 containing 500 μg/ml of G418. The Rep5.1 cells in log phase are suspended by trypsin treatment, and 5000 cells are distributed to each well of a 96-well plate. After 4 hours when the cells are attached to the plate, the serially diluted drug is added to each well. After 48 hours, a part of the treated cells are observed by microscope, and MTT assay is carried out to evaluate the drug toxicity. The cytotoxicity is estimated in percentage based on the control containing no drug. After 72 hours, the remaining cells are fixed by methanol/acetone (50/50, v/v), and the decrease of HCV proteins is measured by using HCV antibody. The extent of decrease is estimated in percentage based on the control containing no drug, and the concentration of drug at which 50% of proteins is decreased is determined to be IC50. The compounds showing activity via this procedure are validated by Western blotting. In order to find out whether the decrease of HCV protein is related to the decrease of replicon RNA, Rep5.1 cell is treated with some selected drugs for 72 hours, RNA is purified, dot blotted, and hybridized with isotope labelled nucleic acid to determine the amounts of actin mRNA and replicon RNA, and finally the amount of RNA is compared.
Plasma samples from 300 persons positive to the hepatitis C antibody test were screened by antibody diagnosis kit produced by LG life Sciences Ltd. (LG HCD3.0 TMB) to select 40 plasma samples having high titer. Replicon cell line and Huh-7 cell line each were cultured in a 96-well cell culture plate, fixed by methanol/acetone (1:1) mixture, and blocked by 3% skimmed milk. The 40 plasma sanples selected above were 100-fold diluted and aided thereto, and the bound antibodies were probed by anti-Human goat antibody (Sigma) to which Horse Radish Peroxidase is attached. As a result, 12 plasma samples having low specificity to Huh-7 cell line, but high specificity to replicon cell line were obtained. These plasma samples were used in the following cell-based ELISA.
Rep5.1 cells were cultured in DMEM-10 containing 500 μg/ml of G418. The Rep5.1 cells in log phase were suspended by trypsin treatment, and 5000 cells were distributed to each well of a 96-well pate. After 4 hours for which the cells were attached to the plate, the serially diluted drug was added to each well. After 72 hours, the cells were fixed by methanol/acetone (50/50, v/v), and the decrease of HCV proteins was measured by using HCV antibody obtained as above. The extent of decrease was estimated in percentage based on the control containing no drug, and the concentration of drug at which 50% of proteins was decreased was determined to be IC50.

[1] = Hepatitis C virus, 72 h, concentration at which 50% of HCV proteins was decreased, Table 2, read-out: IC50
[2] = Hepatitis C virus, 72 h, decrease of HCV proteins measured by HCV antibody, Table 1, read-out: Level (IC50 values classified)
[3] = concentration at which 50% of HCV proteins was decreased, Table 2, read-out: IC50

With CC1=C(C(=O)OCC(F)(F)c2ccsc2)CNC(=S)N1 [71′, 6-methyl-2-thioxo-1,2,3,4-tetrahydro-pyrimidine-5-carboxylic acid 2,2-difluoro-2-thiophen-3-yl-ethyl ester] as the compound, how does the IC50 [1] read?
The IC50 was 600 nM.

And the IC50 [2]?
The IC50 was < 1000 nM.

CC1=C(C(=O)OCc2cc(C)on2)CNC(=S)N1 [47′, 6-methyl-2-thioxo-1,2,3,4-tetrahydro-pyrimidine-5-carboxylic acid 5-methyl-isoxazol-3-ylmethyl ester] was tested. Which IC50 [1] did it give?
Its IC50 is 100000 nM.

What about the IC50 [2] of the same compound?
Its IC50 is > 20000 nM.

How did the IC50 [1] turn out when CC1=C(C(=O)OCCCc2cccs2)C(CO)NC(=S)N1 (stereo not drawn) [4″, 4-hydroxymethyl-6-methyl-2-thioxo-1,2,3,4-tetrahydro-pyrimidine-5-carboxylic acid 3-thiophen-2-yl-propyl ester] was run?
The IC50 was 2500 nM.

And the IC50 [2]?
The IC50 was 1000 to 10000 nM.

What does the source list for CC1=C(C(=O)OCc2ccc(Cl)cc2)CNC(=S)N1 [Compound 43, 6-methyl-2-thioxo-1,2,3,4-tetrahydro-pyrimidine-5-carboxylic acid 4-chloro-benzyl ester]?
IC50 [1]: < 400 nM; IC50 [2]: < 1000 nM

With CCOc1ccccc1CCOC(=O)C1=C(C)NC(=S)NC1CS(=O)(=O)C(C)(C)C (stereo not drawn) [30″, 6-methyl-4-(2-methyl-propane-2-sulfonylmethyl)-2-thioxo-1,2,3,4-tetrahydro-pyrimidine-5-carboxylic acid 2-(2-ethoxy-phenyl)-ethyl ester] as the compound, how does the IC50 [1] read?
Its IC50 is 50000 nM.

And the IC50 [2]?
Its IC50 is > 20000 nM.

How did the IC50 [1] turn out when CC1=C(C(=O)OCCc2ccsc2)C2(CCCC2)NC(=S)N1 [29′, 9-methyl-7-thioxo-6,8-diaza-spiro[4.5]dec-9-ene-10-carboxylic acid 2-thiophen-3-yl-ethyl ester] was run?
The IC50 was 12000 nM.

What about the IC50 [2] of the same compound?
The IC50 was 10000 to 20000 nM.

COc1ccc(Cl)cc1COC(=O)C1=C(C)NC(=S)NC1CF (stereo not drawn) [81′, 4-fluoromethyl-6-methyl-2-thioxo-1,2,3,4-tetrahydro-pyrimidine-5-carboxylic acid 5-chloro-2-methoxy-benzyl ester] was tested. Which IC50 [3] did it give?
The IC50 was 2400 nM.

For CCCCCCCCNC(=O)CCCCCOC(=O)C1=C(C)NC(=S)NC1 [19′, 6-methyl-2-thioxo-1,2,3,4-tetrahydro-pyrimidine-5-carboxylic acid 5-octylcarbamoyl-pentyl ester], which IC50 [1] is on record?
Its IC50 is > 100000 nM.

What about the IC50 [2] of the same compound?
Its IC50 is > 20000 nM.

For COC(=O)NCCOC(=O)OCC1NC(=S)NC(C)=C1C(=O)OCCc1cccc(Cl)c1 (stereo not drawn) [80″, 4-(2-methoxycarbonylnamino-ethoxycarbonyloxymethyl)-6-methyl-2-thioxo-1,2,3,4-tetrahydro-pyrimidine-5-carboxylic acid 2-(3-chloro-phenyl)-ethyl ester], which IC50 [3] is on record?
Its IC50 is 1100 nM.

With CC1=C(C(=O)OCCCCCc2ccccc2)C(CO)NC(=S)N1 (stereo not drawn) [18″, 4-hydroxymethyl-6-methyl-2-thioxo-1,2,3,4-tetrahydro-pyrimidine-5-carboxylic acid 5-phenyl-pentyl ester] as the compound, how does the IC50 [1] read?
The IC50 was < 400 nM.

And the IC50 [2]?
The IC50 was < 1000 nM.

Which IC50 [1] does the source give for CC1=C(C(=O)OCCC2CCCC2)C(CO)NC(=S)N1 (stereo not drawn) [36″, 4-hydroxymethyl-6-methyl-2-thioxo-1,2,3,4-tetrahydro-pyrimidine-5-carboxylic acid 2-cyclopentyl-ethyl ester] here?
Its IC50 is 3000 nM.

What about the IC50 [2] of the same compound?
The IC50 was 1000 to 10000 nM.

How did the IC50 [1] turn out when CCCCCCC(C)OC(=O)C1=C(C)NC(=S)NC1 (stereo not drawn) [Compound 35, 6-methyl-2-thioxo-1,2,3,4-tetrahydro-pyrimidine-5-carboxylic acid 1-methyl-heptyl ester] was run?
Its IC50 is < 500 nM.

And the IC50 [2]?
The IC50 was < 1000 nM.

For CC1=C(C(=O)OCc2ccsc2)CNC(=S)N1 [Compound 139, 6-methyl-2-thioxo-1,2,3,4-tetrahydro-pyrimidine-5-carboxylic acid thiophen-3-ylmethyl ester], which IC50 [1] is on record?
The IC50 was 7000 nM.

And the IC50 [2]?
Its IC50 is 1000 to 10000 nM.

Which IC50 [1] does the source give for CC1=C(C(=O)OCc2ccc(O)cc2)CNC(=S)N1 [Compound 229, 6-methyl-2-thioxo-1,2,3,4-tetrahydro-pyrimidine-5-carboxylic acid 4-hydroxy-benzyl ester] here?
The IC50 was > 100000 nM.

What about the IC50 [2] of the same compound?
The IC50 was > 20000 nM.

Which IC50 [1] does the source give for CCOC(=O)OCC1NC(=S)NC(C)=C1C(=O)OCCc1cccc(Cl)c1 (stereo not drawn) [49″, 4-ethoxycarbonyloxymethyl-6-methyl-2-thioxo-1,2,3,4-tetrahydro-pyrimidine-5-carboxylic acid 2-(3-chloro-phenyl)-ethyl ester] here?
Its IC50 is 3000 nM.

And the IC50 [2]?
Its IC50 is 1000 to 10000 nM.

Which results are given for CCc1ccc(CCCOC(=O)C2=C(C)NC(=S)NC2CO)o1 (stereo not drawn) [19″, 4-hydroxymethyl-6-methyl-2-thioxo-1,2,3,4-tetrahydro-pyrimidine-5-carboxylic acid 3-(5-ethyl-furan-2-yl)-propyl ester]?
IC50 [1]: 1400 nM; IC50 [2]: 1000 to 10000 nM

With CC1=C(C(=O)OCc2scc(C)c2Cl)CNC(=S)N1 [Compound 207, 6-methyl-2-thioxo-1,2,3,4-tetrahydro-pyrimidine-5-carboxylic acid 3-chloro-4-methyl-thiophen-2-ylmethyl ester] as the compound, how does the IC50 [1] read?
Its IC50 is 300 nM.

And the IC50 [2]?
Its IC50 is < 1000 nM.

COCC#CCOC(=O)C1=C(C)NC(=S)NC1 [Compound 215, 6-methyl-2-thioxo-1,2,3,4-tetrahydro-pyrimidine-5-carboxylic acid 4-methoxy-but-2-inyl ester] was tested. Which IC50 [3] did it give?
Its IC50 is 11000 nM.

What does the source list for CCOc1ccc(CCOC(=O)C2=C(C)NC(=S)NC2CO)cc1 (stereo not drawn) [60″, 4-hydroxymethyl-6-methyl-2-thioxo-1,2,3,4-tetrahydro-pyrimidine-5-carboxylic acid 2-(4-ethoxy-phenyl)-ethyl ester]?
IC50 [1]: 2500 nM; IC50 [2]: 1000 to 10000 nM

Which results are given for CC1=C(C(=O)OCCc2ccc(C)s2)CNC(=S)N1 [Compound 258, 6-methyl-2-thioxo-1,2,3,4-tetrahydro-pyrimidine-5-carboxylic acid 2-(5-methyl-thiophen-2-yl)-ethyl ester]?
IC50 [1]: < 400 nM; IC50 [2]: < 1000 nM

Which results are given for CC1=C(C(=O)OCCc2cc(C)cc(C)c2)CNC(=S)N1 [Compound 175, 6-methyl-2-thioxo-1,2,3,4-tetrahydro-pyrimidine-5-carboxylic acid 2-(3,5-dimethylphenyl)-ethyl ester]?
IC50 [1]: < 400 nM; IC50 [2]: < 1000 nM

With O=C(OCc1ccccc1)C1=C(c2cccc3ccccc23)NC(=S)NC1 [Compound 17, 6-naphthalen-1-yl-2-thioxo-1,2,3,4-tetrahydro-pyrimidine-5-carboxylic acid benzyl ester] as the compound, how does the IC50 [1] read?
The IC50 was 100000 nM.

And the IC50 [2]?
The IC50 was > 20000 nM.

How did the IC50 [1] turn out when COC(=O)c1ccc(COC(=O)C2=C(C)NC(=S)NC2)cc1 [Compound 11, 6-methyl-2-thioxo-1,2,3,4-tetrahydro-pyrimidine-5-carboxylic acid 4-methoxycarbonyl-benzyl ester] was run?
Its IC50 is > 100000 nM.

And the IC50 [2]?
Its IC50 is > 20000 nM.

Which results are given for CC1=C(C(=O)OCCc2c(F)cccc2F)C(CF)NC(=S)N1 (stereo not drawn) [75′, 4-fluoromethyl-6-methyl-2-thioxo-1,2,3,4-tetrahydro-pyrimidine-5-carboxylic acid 2-(2,6-difluoro-phenyl)-ethyl ester]?
IC50 [1]: 2600 nM; IC50 [2]: 1000 to 10000 nM

How did the IC50 [3] turn out when CCCOCC#CCOC(=O)C1=C(C)NC(=S)NC1 [Compound 237, 6-methyl-2-thioxo-1,2,3,4-tetrahydro-pyrimidine-5-carboxylic acid 4-propoxy-but-2-inyl ester] was run?
Its IC50 is 1700 nM.

What does the source list for O=C(OCc1ccccc1)C1=C(C(=O)OCc2ccccc2)NC(=S)NC1 [Compound 87, 2-thioxo-1,2,3,6-tetrahydro-pyrimidine-4,5-dicarboxylic acid dibenzyl ester]?
IC50 [1]: 56000 nM; IC50 [2]: > 20000 nM

What does the source list for CCc1ccc(CCOC(=O)C2=C(C)NC(=S)NC2CO)o1 (stereo not drawn) [65″, 4-hydroxymethyl-6-methyl-2-thioxo-1,2,3,4-tetrahydro-pyrimidine-5-carboxylic acid 2-(5-ethyl-furan-2-yl)-ethyl ester]?
IC50 [1]: 1400 nM; IC50 [2]: 1000 to 10000 nM

Which IC50 [1] does the source give for CC1=C(C(=O)OCc2ccccc2C(F)(F)F)CNC(=S)N1 [Compound 100, 6-methyl-2-thioxo-1,2,3,4-tetrahydro-pyrimidine-5-carboxylic acid 2-trifluoromethyl-benzyl ester] here?
Its IC50 is < 400 nM.

What about the IC50 [2] of the same compound?
The IC50 was < 1000 nM.

O=C(OCCc1ccsc1)C1=C(CO)NC(=S)NC1 [67′, 6-hydroxymethyl-2-thioxo-1,2,3,4-tetrahydro-pyrimidine-5-carboxylic acid 2-thiophen-3-yl-ethyl ester] was tested. Which IC50 [1] did it give?
Its IC50 is > 100000 nM.

And the IC50 [2]?
The IC50 was > 20000 nM.
